In paper PMC11579541, “In vitro, in vivo, and in silico approaches for evaluating the preclinical DMPK profiles of ammoxetine, a novel chiral serotonin and norepinephrine reuptake inhibitor” (Frontiers in Pharmacology, 2024):

Key:
Excretion study in rats = assay type: in vivo, SD rats; settings: 20 mg/kg oral; for Bile Cumulative excretion rate / Bile Excretion rate: bile duct cannulated rats; for Feces Cumulative excretion rate / Feces Excretion rate / Urine Cumulative excretion rate / Urine Excretion rate: rats
Experimental: Five SD rats were pre-adapted in separate metabolic cages with access to water and a solid diet. They were then administered a single oral dose of 20 mg/kg of ammoxetine after a 12-h fasting period and free access to water. Feces and urine samples were collected at specific time intervals: 0–5 h, 5–12 h, 12–24 h, 24–48 h, and 48–72 h post-administration. The dried fecal weights and urine volumes were measured and recorded at each sampling period. The collected feces were ground, thoroughly mixed, and then homogenized in distilled water to create a 10% homogenate, which was used as the fecal sample. In parallel, after a 12-h fasting period with free access to water, five SD rats were anesthetized, and bile duct cannulation was performed to collect bile samples. Once recovered from anesthesia, these rats received a single oral dose of 20 mg/kg of ammoxetine via oral gavage. Bile was collected at the following time points: 0–5 h, 5–12 h, 12–24 h, 24–48 h, and 48–72 h post-dosing, and its volume was measured. All collected samples were stored at −30°C until further processing. For sample processing, 100 μL of feces homogenates, urine, or bile samples were taken and mixed with 100 μL of L-phencynonate (IS, 50 ng/mL) and 300 μL of methanol. After vortexing, the mixture was centrifuged at 13,800×g for 10 min. The resulting supernatants were analyzed using an LC-MS-MS method.

CYP 1A2 = biological target: T1, CYP 1A2 (Homo sapiens, UniProt P05177); experiment: CYP inhibition, cocktail-substrate method in HLM; assay type: in vitro ADME; set-up: 0.5 mg/mL HLM, 1 mmol/L NADPH, and a cocktail of 10 probe substrates for 9 CYP isoforms; tissue BD (Woburn, USA); host or cells: pooled human liver microsomes
T1 sequence (P05177 1-516): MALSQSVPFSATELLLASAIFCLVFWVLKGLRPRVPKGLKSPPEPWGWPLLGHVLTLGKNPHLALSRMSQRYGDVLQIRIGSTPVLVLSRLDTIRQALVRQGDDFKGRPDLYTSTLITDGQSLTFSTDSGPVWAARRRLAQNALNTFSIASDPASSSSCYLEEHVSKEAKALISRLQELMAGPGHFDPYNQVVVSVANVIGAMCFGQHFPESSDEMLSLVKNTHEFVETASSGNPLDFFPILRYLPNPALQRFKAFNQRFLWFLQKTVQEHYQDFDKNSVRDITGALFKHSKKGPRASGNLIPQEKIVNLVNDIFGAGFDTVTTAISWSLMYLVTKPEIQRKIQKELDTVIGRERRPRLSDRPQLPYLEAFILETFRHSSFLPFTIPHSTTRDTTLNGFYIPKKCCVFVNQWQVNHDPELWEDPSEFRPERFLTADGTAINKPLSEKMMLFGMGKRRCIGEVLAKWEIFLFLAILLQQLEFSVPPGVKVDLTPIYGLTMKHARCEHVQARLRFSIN
Experimental: To assess the CYP inhibition profiling of ammoxetine, a high-throughput assay based on the cocktail-substrate method was performed, as described in the literature ([Kim et al., 2005]; [Kozakai et al., 2014]). Microsomal incubations were conducted in triplicate for 30 min at 37°C in a reaction system (200 μL) consisting of […] potassium phosphate buffer (pH 7.4), 0.5 mg/mL HLM, 1 mmol/L NADPH, and a cocktail of 10 probe substrates for 9 CYP isoforms. The final concentration of each CYP-specific substrate was chosen to be close to the Michaelis-Menten constant (K m ) value of the respective substrate ([Kim et al., 2005]; [Lee et al., 2024]). For instance, phenacetin (CYP 1A2) was used at a concentration of 50 μmol/L, coumarin (CYP 2A6) at 5 μmol/L, bupropion (CYP 2B6) at 50 μmol/L, amodiaquine (CYP 2C8) at 5 μmol/L, tolbutamide (CYP 2C9) at 100 μmol/L, S-mephenytoin (CYP 2C19) at 100 μmol/L, dextromethorphan (CYP 2D6) at 5 μmol/L, chlorzoxazone (CYP 2E1) at 50 μmol/L, and testosterone and midazolam (CYP 3A4) at 50 μmol/L. Ammoxetine was evaluated at five concentrations: 0.1, 1, 10, 50, and 100 μmol/L. Additionally, a blank control without ammoxetine was included. The incubation was terminated by adding an equal volume of ice-cold acetonitrile/methanol (1:1, v/v) along with the IS, dexmedetomidine (1 ng/mL). After a 20-fold dilution, the mixture was centrifuged at 13,800×g for 10 min at 4°C. The supernatants were used to measure the levels of metabolites from the respective probe substrates using an LC-MS-MS method. The half-maximal inhibitory concentration (IC50) values were subsequently calculated.

**Q.** Which “Bile Cumulative excretion rate” value (Excretion study in rats; 0–5 h) does the source give for `CNCC[C@H](Oc1cccc2c1OCO2)c1cccs1` [ammoxetine] here?
**A.** 0.089 ± 0.058%

**Q.** What about the “Bile Excretion rate” value (Excretion study in rats; 0–5 h) of the same compound?
**A.** 0.089 ± 0.058%

**Q.** And the “Bile Cumulative excretion rate” value (Excretion study in rats; 5–12 h)?
**A.** 0.271 ± 0.257%

**Q.** And the “Bile Excretion rate” value (Excretion study in rats; 5–12 h)?
**A.** 0.182 ± 0.212%

**Q.** And the “Bile Cumulative excretion rate” value (Excretion study in rats; 12–24 h)?
**A.** 0.420 ± 0.384%

**Q.** What about the “Bile Excretion rate” value (Excretion study in rats; 12–24 h) of the same compound?
**A.** 0.149 ± 0.146%

**Q.** What about the “Bile Cumulative excretion rate” value (Excretion study in rats; 24–48 h) of the same compound?
**A.** 0.420 ± 0.384%

**Q.** What about the “Bile Excretion rate” value (Excretion study in rats; 48–72 h) of the same compound?
**A.** 0.016 ± 0.016%

**Q.** What about the “Bile Cumulative excretion rate” value (Excretion study in rats; 48–72 h (at 72 h)) of the same compound?
**A.** 0.436 ± 0.400%

**Q.** What about the “Feces Cumulative excretion rate” value (Excretion study in rats; 0–5 h) of the same compound?
**A.** 0.010 ± 0.008%

**Q.** What about the “Feces Excretion rate” value (Excretion study in rats; 0–5 h) of the same compound?
**A.** 0.010 ± 0.008%

**Q.** What about the “Urine Cumulative excretion rate” value (Excretion study in rats; 0–5 h) of the same compound?
**A.** 0.116 ± 0.034%

**Q.** And the “Urine Excretion rate” value (Excretion study in rats; 0–5 h)?
**A.** 0.116 ± 0.034%

**Q.** And the “Feces Cumulative excretion rate” value (Excretion study in rats; 5–12 h)?
**A.** 0.216 ± 0.060%

**Q.** And the “Feces Excretion rate” value (Excretion study in rats; 5–12 h)?
**A.** 0.206 ± 0.056%

**Q.** And the “Urine Cumulative excretion rate” value (Excretion study in rats; 5–12 h)?
**A.** 0.223 ± 0.069%

**Q.** What about the “Urine Excretion rate” value (Excretion study in rats; 5–12 h) of the same compound?
**A.** 0.107 ± 0.048%

**Q.** What about the “Feces Cumulative excretion rate” value (Excretion study in rats; 12–24 h) of the same compound?
**A.** 0.361 ± 0.168%

**Q.** And the “Feces Excretion rate” value (Excretion study in rats; 12–24 h)?
**A.** 0.145 ± 0.126%

**Q.** And the “Urine Cumulative excretion rate” value (Excretion study in rats; 12–24 h)?
**A.** 0.273 ± 0.124%

**Q.** And the “Urine Excretion rate” value (Excretion study in rats; 12–24 h)?
**A.** 0.050 ± 0.057%

**Q.** And the “Feces Cumulative excretion rate” value (Excretion study in rats; 24–48 h)?
**A.** 0.380 ± 0.180%

**Q.** And the “Feces Excretion rate” value (Excretion study in rats; 24–48 h)?
**A.** 0.019 ± 0.016%

**Q.** What about the “Urine Cumulative excretion rate” value (Excretion study in rats; 24–48 h) of the same compound?
**A.** 0.287 ± 0.134%

**Q.** And the “Urine Excretion rate” value (Excretion study in rats; 24–48 h)?
**A.** 0.014 ± 0.010%

**Q.** What about the “Feces Excretion rate” value (Excretion study in rats; 48–72 h) of the same compound?
**A.** 0.002 ± 0.003%

**Q.** And the “Urine Excretion rate” value (Excretion study in rats; 48–72 h)?
**A.** 0.005 ± 0.003%

**Q.** What about the “Feces Cumulative excretion rate” value (Excretion study in rats; 48–72 h (at 72 h)) of the same compound?
**A.** 0.382 ± 0.180%

**Q.** What about the “Urine Cumulative excretion rate” value (Excretion study in rats; 48–72 h (at 72 h)) of the same compound?
**A.** 0.292 ± 0.137%

**Q.** And the IC50 (CYP 1A2; HLM, probe phenacetin)?
**A.** > 100 µM

**Q.** And the “probe substrate levels, % of the original blank group” value (CYP 1A2; ammoxetine 100 μmol/L)?
**A.** ~72.30%
